Results from patent US5466716A, “Liposomal trimethylsphingosine” (The Biomembrane Institute, priority 1994, dated 1995).
“Also recorded” adds a separate entry of the source.

Tests used:
[1] = tested on: human lung cancer cell line LU-65; assay: tritiated thymidine incorporation, tumor cell growth (LU-65); type: cell-based; details: LU-65, FIG. 2B
Excerpt: FIGS. 2A-2C show the effect of sphingosine derivatives on human tumor cell growth. In FIG. 2A the growth of human colonic cancer cell line COLO-205 was monitored. In FIG. 2B the growth of human lung cancer cell line LU-65 was monitored. In FIG. 2C the growth of human gastric cancer cell line MKN-74 was monitored. In each Figure the ordinate represents the percent inhibition of tritiated thymidine incorporation, the solid circles represent sphingosine, the open circles represent N,N-dimethylsphingosine and the triangles represent N,N,N-trimethylsphingosine.
An in vitro assay relying on tritiated thymidine incorporation can be used to ascertain the effect of various compounds on cell proliferation. Briefly, tumor cells are seeded in flat bottom 96 well plates (Corning, N.Y.) at a concentration of 2×10^4 cells per well. The cells are cultured for 2 days in DMEM containing various concentrations of sphingoid, which is added as a PBS solution. The medium then is supplemented with tritiated thymidine at a concentration of 0.5 μCi per well. Following a six hour incubation the cells are collected using the PHD Cell Harvester (Cambridge Technology, Cambridge, Mass.) and amounts of incorporated radioactivity are determined after adding a suitable cell lysing agent and scintillation cocktail, such as ScintiVerse BD (Fisher Scientific, Fairlawn, Calif.) which performs both functions. […]

BL6 melanoma cells = assay: melanoma BL6 cell proliferation (thymidine incorporation); type: cell-based; details: BL6, FIG. 5A
Excerpt: FIGS. 5A and 5B depict the effect of N,N,N-trimethylsphingosine (open circles), N,N-dimethylsphingosine (solid circles) and sphingosine (open squares) on two melanoma cell lines, BL6, a highly malignant cell line (in FIG. 5A) and F1, a cell line of low malignancy, (in FIG. 5B). Cell proliferation was evidenced by tritiated thymidine incorporation into DNA.
An in vitro assay relying on tritiated thymidine incorporation can be used to ascertain the effect of various compounds on cell proliferation. Briefly, tumor cells are seeded in flat bottom 96 well plates (Corning, N.Y.) at a concentration of 2×10^4 cells per well. The cells are cultured for 2 days in DMEM containing various concentrations of sphingoid, which is added as a PBS solution. The medium then is supplemented with tritiated thymidine at a concentration of 0.5 μCi per well. Following a six hour incubation the cells are collected using the PHD Cell Harvester (Cambridge Technology, Cambridge, Mass.) and amounts of incorporated radioactivity are determined after adding a suitable cell lysing agent and scintillation cocktail, such as ScintiVerse BD (Fisher Scientific, Fairlawn, Calif.) which performs both functions.
Certain cancer cells show a higher metastatic potential and invasive capability than others. For example the BL6 and F10 melanoma cell lines are highly metastatic and invasive. […]

neutrophils = assay: neutrophil O2 consumption (Clark-type electrode); type: cell-based, human
Protocol: FIG. 14 depicts the effect of various reagents on neutrophil O2 consumption. The Clark-type electrode and oxygen monitor were calibrated using air-saturated water according to the manufacturer's recommendations (Y.S.I. Inc., Yellow Springs, Ohio. A reading of 100% was considered to be equal to the concentration of oxygen in air-saturated water.
O2 consumption was measured using a Clark-type electrode with a Y.S.I. model P300 biological oxygen monitor and a micro oxygen chamber assembly (Y.S.I. Inc., Yellow Springs, Ohio). Assays were performed at 37° C. with ≈6×10^6 neutrophils per ml in a total volume of 600 μl. The cell suspensions, in Eppendorf test tubes, were warmed at 37° C. for several minutes before being applied to the microchamber. Effectors were injected carefully using a Hamilton syringe and stirred well with a microstirrer at a speed of ≈240 rpm. The cell suspensions were pre-incubated with effectors for 5 min prior to addition of PMA to a final concentration of 1.0 μM.

HUVEC's = assay: morphologic damage to endothelial cells (HUVEC's); type: cell-based, human; details: staurosporine 2 μM, calphostin C 5 μM
Protocol: A characteristic of neutrophils is the ability to adhere to activiated EC's and to migrate through the EC monolayer into the vascular or extravascular matrix. The effect of TMS on neutrophil interactions with EC's and their subsequent trans-endothelial migration thereof can be monitored in vitro using human umbilical endothelial cells (HUVEC's) (Luscinskas et al., J. Imm., 146, 1617, 1991). Neutrophils are added to a HUVEC monolayer and neutrophil-HUVEC interactions are assessed microscopically following fixation, embedding and staining of monolayer sections.
HUVEC's and culture media were purchased from Cell Systems (Kirkland, Wash.). The cells were maintained and cultured as described in Luscinskas et al., supra, with some modifications. Briefly, HUVEC's were maintained in 10 ml tissue culture flasks on a collagen type I bed obtained from rat tail (Upstate Biotechnology Inc, Lake Placid, N.Y.) with CS-complete medium, CS-growth factor and CS-AF-1 (Cell Systems). Cells became confluent within 2 to 4 days when incubated in 5% CO2 at 37° C.
The HUVEC monolayer in 24-well tissue culture plates were washed with M199 without FCS, then incubated with 1 ml/well of IL-1β (Boehringer Mannheim Biochemical Products, Indianapolis, Ind.) dissolved in M199 with 1% heat-inactivated FCS (HIFCS) at 10 U/ml. The plates were incubated at 37° C., 5% CO2 for 4 hr then washed gently with 1 ml of M199. […]

Compound	inhibition of tumor cell growth [1]	inhibition of cell growth (BL6 melanoma cells)	neutrophil O2 consumption (neutrophils; Example 6)	inhibition of PMA-dependent enhancement of O2 consumption (neutrophils; PMA, FIG. 14)	morphologic damage to EC's (HUVEC's)
CCCCCCCCCCCCC/C=C/[C@@H](O)[C@H](CO)[N+](C)(C)C [TMS, N,N,N-trimethylsphingosine]	superior to sphingosine; also recorded: showed an advantage over DMS	more effective than DMS and sphingosine; also recorded: BL6 cells were more sensitive to TMS treatment	noted effect	inhibited strongly	–
Calphostin C	–	–	–	–	striking morphologic damage to EC's
